One may read the IC50 as the midpoint of a concentration-inhibition curve.

Structures are written as SMILES.

Test [1] deals with T1, Inositol-trisphosphate 3-kinase B (Homo sapiens, UniProt P27987).
T1 sequence (P27987 whole entry): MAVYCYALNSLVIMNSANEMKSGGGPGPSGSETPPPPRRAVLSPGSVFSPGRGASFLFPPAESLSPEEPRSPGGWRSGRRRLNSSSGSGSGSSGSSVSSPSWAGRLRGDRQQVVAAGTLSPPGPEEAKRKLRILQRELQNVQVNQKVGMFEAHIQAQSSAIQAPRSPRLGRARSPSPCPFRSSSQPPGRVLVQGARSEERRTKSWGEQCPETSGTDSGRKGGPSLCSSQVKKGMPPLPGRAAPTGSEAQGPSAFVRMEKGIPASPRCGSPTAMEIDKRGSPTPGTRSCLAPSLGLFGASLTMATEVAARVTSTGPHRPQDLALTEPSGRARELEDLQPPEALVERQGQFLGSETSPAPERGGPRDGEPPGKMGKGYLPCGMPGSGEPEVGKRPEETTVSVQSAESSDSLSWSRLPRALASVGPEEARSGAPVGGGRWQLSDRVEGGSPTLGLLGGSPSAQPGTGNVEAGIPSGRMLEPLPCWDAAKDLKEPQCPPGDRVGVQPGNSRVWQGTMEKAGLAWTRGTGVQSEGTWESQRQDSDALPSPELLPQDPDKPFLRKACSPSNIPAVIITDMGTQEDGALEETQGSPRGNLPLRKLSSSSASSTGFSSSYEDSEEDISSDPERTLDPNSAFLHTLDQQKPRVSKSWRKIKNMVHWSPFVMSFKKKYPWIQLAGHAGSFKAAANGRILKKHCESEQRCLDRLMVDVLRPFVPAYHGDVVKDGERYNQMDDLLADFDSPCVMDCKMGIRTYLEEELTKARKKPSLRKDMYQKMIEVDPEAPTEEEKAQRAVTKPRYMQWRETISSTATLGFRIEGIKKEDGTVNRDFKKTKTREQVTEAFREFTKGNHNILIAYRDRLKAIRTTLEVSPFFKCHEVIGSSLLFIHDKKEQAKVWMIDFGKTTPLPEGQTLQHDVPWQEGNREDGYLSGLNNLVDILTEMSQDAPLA
The experiment in a line: Inhibition of ITPKb in human Jurkat cells assessed as reduction in conversion of IP3 to IP4 using [3H]-myo-inositol incubated for 5 mins by beta-RAM radio-HPLC method. The class given is cell-based.

A further test concerns the target T2, Kinase (Mus musculus, UniProt B2RXC2).
T2 sequence (B2RXC2 whole entry): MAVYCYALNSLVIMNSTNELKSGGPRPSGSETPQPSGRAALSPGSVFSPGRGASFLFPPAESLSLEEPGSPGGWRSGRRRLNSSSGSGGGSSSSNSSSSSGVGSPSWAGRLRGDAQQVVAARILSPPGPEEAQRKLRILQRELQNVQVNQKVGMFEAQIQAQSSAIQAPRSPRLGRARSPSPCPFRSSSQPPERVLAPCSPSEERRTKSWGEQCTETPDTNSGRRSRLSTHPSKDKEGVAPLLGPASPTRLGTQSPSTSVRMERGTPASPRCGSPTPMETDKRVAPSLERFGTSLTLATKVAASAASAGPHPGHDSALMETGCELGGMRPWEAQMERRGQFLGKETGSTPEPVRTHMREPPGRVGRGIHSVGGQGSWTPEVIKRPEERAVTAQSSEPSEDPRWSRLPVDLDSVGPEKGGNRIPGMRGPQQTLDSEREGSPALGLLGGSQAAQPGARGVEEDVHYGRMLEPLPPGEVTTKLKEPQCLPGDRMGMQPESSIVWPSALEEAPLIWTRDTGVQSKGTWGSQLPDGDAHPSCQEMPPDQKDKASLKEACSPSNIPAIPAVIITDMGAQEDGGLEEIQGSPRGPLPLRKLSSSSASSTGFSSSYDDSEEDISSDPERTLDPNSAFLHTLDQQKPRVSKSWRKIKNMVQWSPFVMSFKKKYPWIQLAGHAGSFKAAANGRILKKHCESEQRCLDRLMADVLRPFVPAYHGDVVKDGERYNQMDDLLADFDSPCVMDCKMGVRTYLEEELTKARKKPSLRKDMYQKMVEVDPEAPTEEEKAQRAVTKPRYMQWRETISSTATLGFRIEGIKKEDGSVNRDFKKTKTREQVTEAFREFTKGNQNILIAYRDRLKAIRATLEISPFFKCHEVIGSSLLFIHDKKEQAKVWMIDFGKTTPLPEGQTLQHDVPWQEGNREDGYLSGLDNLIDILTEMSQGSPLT
The experiment in a line: Inhibition of mouse ITPKb (640 to 942 residues) expressed in Escherichia coli HK100 assessed as reduction in IP3 phosphorylation incubated for 60 mins by kinase-Glo ATP depletion assay. In general terms: In Kinase-Glo more light means more ATP remaining.

In the case of `C[C@H]1CN(Cc2c[nH]nc2-c2ccc3c(c2)CNC(=O)O3)CCN1c1ccc(C(F)(F)F)cn1`, the IC50 in test [1] was less than 500 nM; on Kinase, less than 100 nM.
As for `O=c1[nH]c(=O)c2cc(-c3n[nH]cc3CN3C4CCC3CN(c3ccc(C(F)(F)F)cn3)C4)ccc2o1`, the values for the half-maximal inhibitory concentration (IC50) (in test [1]; at Kinase) were less than 500 nM and less than 100 nM, respectively.
Turning to `O=C1NCc2cc(-c3n[nH]cc3CN3C4CCC3CN(c3ccc(C(F)(F)F)cn3)C4)ccc2O1`, the values for the IC50 (in test [1]; on Kinase) were less than 500 nM and less than 100 nM, respectively.
With `C[C@@H]1CN(Cc2c[nH]nc2-c2ccc3[nH]c(=O)oc3c2)CCN1c1ccc(C(F)(F)F)cn1`, the IC50 in test [1] is less than 500 nM; at Kinase it was less than 100 nM.
For `C[C@@H]1CN(Cc2c[nH]nc2-c2ccc3oc(=O)[nH]c(=O)c3c2)CCN1c1ccc(C(F)(F)F)cn1`, in that order: less than 500 nM and less than 100 nM.
Take `O=C1NCc2cc(-c3n[nH]cc3CN3CCN(c4ccc(C(F)(F)F)cn4)C[C@H]3CF)ccc2O1`: the IC50 in test [1] was less than 500 nM; on Kinase, less than 100 nM.
Regarding `C[C@@H]1CN(Cc2c[nH]nc2-c2ccc3c(c2)CNC(=O)O3)CCN1c1ccc(C(F)(F)F)cn1`, the IC50 was less than 500 nM in test [1] and less than 100 nM on Kinase.
For `O=C1NCc2cc(-c3n[nH]cc3CN3C4CC3CN(c3ccc(C(F)(F)F)cn3)C4)ccc2O1`, in that order: less than 500 nM and less than 100 nM.
Turning to `O=C1NCc2cc(-c3n[nH]cc3CN3CCN(c4ccc(C(F)(F)F)cn4)CC3C(F)(F)F)ccc2O1` (stereo not drawn), on Kinase, the half-maximal inhibitory concentration (IC50) was less than 100 nM.
As for `C[C@@H]1CN(Cc2c[nH]nc2-c2ccc3c(c2)C(C)(C)NC(=O)O3)CCN1c1ccc(C(F)(F)F)cn1`, the IC50 in test [1] is less than 500 nM; on Kinase, less than 100 nM.
For `C[C@@H]1CN(Cc2c[nH]nc2-c2ccc3c(c2)CNC(=O)O3)CCN1Cc1ccccc1F`, the concentration for half-maximal inhibition (IC50) in test [1] is less than 500 nM; at Kinase, less than 100 nM.
As for `O=C1NCc2cc(-c3n[nH]cc3CN3CCN(c4ccc(C(F)(F)F)cn4)C[C@H]3CO)ccc2O1`, the IC50 is less than 500 nM in test [1] and less than 100 nM at Kinase.
`C[C@H]1CN(Cc2c[nH]nc2-c2ccc3[nH]c(=O)oc3c2)CCN1c1ccc(C(F)(F)F)cn1`: the IC50 in test [1] is less than 500 nM; on Kinase it was less than 100 nM.
In the case of `C[C@@H]1CN(Cc2c[nH]nc2-c2ccc3c(c2)CNC(=O)O3)CCN1c1ccc(C#N)cn1`, the half-maximal inhibitory concentration (IC50) in test [1] is less than 500 nM; at Kinase, less than 100 nM.
Taken in the same sequence, the figures for `C[C@@H]1CN(Cc2c[nH]nc2-c2ccc3c(c2)C(=O)NC(=O)C3)CCN1c1ccc(C(F)(F)F)cn1` were less than 500 nM and less than 100 nM.
On to `O=C1NCc2cc(-c3n[nH]cc3CN3CCN(c4ccc(C(F)(F)F)cn4)[C@H](C(F)(F)F)C3)ccc2O1`, for which the IC50 is less than 500 nM in test [1] and less than 100 nM at Kinase.
Regarding `C[C@@H]1CN(Cc2n[nH]nc2-c2ccc3c(c2)CNC(=O)O3)CCN1c1ccc(C(F)(F)F)cn1`, the IC50 in test [1] is less than 500 nM; on Kinase it was less than 100 nM.
Turning to `O=c1[nH]c(=O)c2cc(-c3n[nH]cc3CN3CCN(c4ccc(C(F)(F)F)cn4)CC3)ccc2o1`, the 50% inhibitory concentration (IC50) is less than 500 nM in test [1] and less than 100 nM at Kinase.
With `C[C@@H]1CN(Cc2c[nH]nc2-c2ccc3c(c2)CNC(=O)O3)CCN1c1cc(C#N)ccn1`, the results for the IC50 (in test [1]; at Kinase) were less than 500 nM and less than 100 nM, respectively.
For the compound `C[C@@H]1CN(Cc2c[nH]nc2-c2ccc3c(c2)CNC(=O)O3)CCN1c1ccc(Cl)cc1`, the IC50 in test [1] was less than 500 nM; on Kinase, less than 100 nM.
For `O=C1NCc2cc(-c3n[nH]cc3CN3CCN(c4ccc(C(F)(F)F)cn4)[C@@H](C(F)(F)F)C3)ccc2O1`, the IC50 in test [1] is less than 500 nM; on Kinase it was less than 100 nM.
As to `C[C@@H]1CN(Cc2c[nH]nc2-c2ccc3c(c2)CNC(=O)C3)CCN1c1ccc(C(F)(F)F)cn1`, the figures for the IC50 (in test [1]; on Kinase) were less than 500 nM and less than 100 nM, respectively.
Consider `Cc1cccc(N2CCN(Cc3c[nH]nc3-c3ccc4oc(=O)[nH]c(=O)c4c3)CC2)c1C`, for which the values for the concentration for half-maximal inhibition (IC50) (in test [1]; on Kinase) were less than 500 nM and less than 100 nM, respectively.
Turning to `O=C1NCc2cc(-c3n[nH]cc3CN3CCN(c4ccc(C(F)(F)F)cn4)C4(CC4)C3)ccc2O1`, the concentration for half-maximal inhibition (IC50) is less than 500 nM in test [1] and less than 100 nM at Kinase.
`C[C@@H]1CN(Cc2c[nH]nc2-c2ccc3c(c2)CNC(=O)O3)CCN1c1cccc(C(F)(F)F)c1`: the IC50 in test [1] was less than 500 nM; at Kinase it was less than 100 nM.
Take `C[C@@H]1CN(Cc2c[nH]nc2-c2ccc3c(c2)CNC(=O)O3)CCN1c1ccc(Cl)cn1`: the IC50 was less than 500 nM in test [1] and less than 100 nM on Kinase.
Regarding `O=C1NCc2cc(-c3n[nH]cc3CN3CCN(c4ccc(C(F)(F)F)cn4)C(C(F)(F)F)C3)ccc2O1` (stereo not drawn), the concentration for half-maximal inhibition (IC50) in test [1] is less than 500 nM; at Kinase it was less than 100 nM.
Take `Cc1ccc(N2CCN(Cc3c[nH]nc3-c3ccc4c(c3)CNC(=O)O4)C[C@H]2C)nc1`: the concentration for half-maximal inhibition (IC50) in test [1] is less than 500 nM; at Kinase it was less than 100 nM.
As for `O=C1Cc2ccc(-c3n[nH]cc3CN3CCCN(c4ccc(C(F)(F)F)cn4)CC3)cc2CN1`, the concentration for half-maximal inhibition (IC50) was less than 500 nM in test [1] and less than 100 nM at Kinase.
For `C[C@@H]1CN(Cc2c[nH]nc2-c2ccc3c(c2)CNC(=O)O3)CCN1c1ccc(C(F)(F)F)cc1`, in that order: less than 500 nM and less than 100 nM.
For `O=C1NCc2cc(-c3n[nH]cc3CN3CCN(c4ccc(C(F)(F)F)cn4)CC3)ccc2O1`, in that order: less than 500 nM and less than 100 nM.
Take `O=C1NCc2cc(-c3n[nH]cc3CN3CCN(c4ccc(C(F)(F)F)cn4)C[C@H]3C(=O)O)ccc2O1`: the IC50 is less than 500 nM in test [1] and less than 100 nM at Kinase.
For `Cc1cccc(N2CCN(Cc3c[nH]nc3-c3ccc4[nH]c(=O)oc4c3)CC2)c1C`, in that order: less than 500 nM and less than 100 nM.
On to `C[C@H]1CN(Cc2c[nH]nc2-c2ccc3oc(=O)[nH]c(=O)c3c2)CCN1c1ccc(C(F)(F)F)cn1`, for which the IC50 in test [1] is less than 500 nM; on Kinase, less than 100 nM.
Regarding `C[C@@H]1CN(Cc2c[nH]nc2-c2ccc3oc(=O)[nH]c3c2)CCN1c1ccc(C(F)(F)F)cn1`, the half-maximal inhibitory concentration (IC50) in test [1] is less than 500 nM; at Kinase, less than 100 nM.
On to `O=C1NCc2cc(-c3n[nH]cc3CN3CCN(c4ccc(C(F)(F)F)cn4)[C@H](CF)C3)ccc2O1`, for which the half-maximal inhibitory concentration (IC50) in test [1] was less than 500 nM; at Kinase, less than 100 nM.
Taken in the same sequence, the figures for `O=C1NCc2cc(-c3n[nH]cc3CN3CCCN(c4ccc(C(F)(F)F)cn4)CC3)ccc2O1` were less than 500 nM and less than 100 nM.
On to `O=C1NCc2cc(-c3n[nH]cc3CN3CCCN(c4ccc(C(F)(F)F)cn4)CC3)ccc2N1`, for which the IC50 was less than 500 nM in test [1] and less than 100 nM at Kinase.
Regarding `C[C@@H]1CN(Cc2c[nH]nc2-c2ccc3c(c2)CNC(=O)N3)CCN1c1ccc(C(F)(F)F)cn1`, the half-inhibitory concentration (IC50) in test [1] is less than 500 nM; at Kinase, less than 100 nM.
For `C[C@@H]1CN(Cc2c[nH]nc2-c2ccc3c(c2)CNC(=O)O3)CCN1c1nccc(C(F)(F)F)n1`, the IC50 in test [1] was less than 500 nM; on Kinase, less than 100 nM.
Turning to `C[C@@H]1CN(Cc2c[nH]nc2-c2ccc3c(c2)CNC(=O)O3)CCN1C1CCCCC1`, the IC50 in test [1] was less than 500 nM; on Kinase, less than 100 nM.
For `O=C1NCc2cc(-c3n[nH]cc3CN3CCN(c4ccc(C(F)(F)F)cn4)[C@H](CO)C3)ccc2O1`, in that order: less than 500 nM and less than 100 nM.

The values above are taken from ChEMBL document CHEMBL3714748, “Compounds and compositions as ITPKB inhibitors” (2012).
